Source: article PMC7997574, “Lead Optimization of Benzoxazolone Carboxamides as Orally Bioavailable and CNS Penetrant Acid Ceramidase Inhibitors” (Journal of Medicinal Chemistry, 2020)

How the values were obtained:
[1] = biological target: T1, monoacylglycerol lipase (MAGL) (Homo sapiens, UniProt Q99685); assay: In vitro hMAGL colorimetric assay; type: biochemical; conditions: 1 and 10 μM
T1 construct: purchased Cayman Scientific item; 705192
T1 sequence (Q99685 1-303): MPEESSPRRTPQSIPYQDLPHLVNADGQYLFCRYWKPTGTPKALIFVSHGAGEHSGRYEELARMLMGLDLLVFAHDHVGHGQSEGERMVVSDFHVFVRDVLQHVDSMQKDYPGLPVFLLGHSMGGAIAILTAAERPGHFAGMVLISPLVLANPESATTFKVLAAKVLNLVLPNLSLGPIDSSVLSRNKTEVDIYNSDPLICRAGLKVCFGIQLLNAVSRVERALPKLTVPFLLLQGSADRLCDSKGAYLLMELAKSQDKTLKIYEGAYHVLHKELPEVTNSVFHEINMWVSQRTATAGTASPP
Protocol: The colorimetric assay to measure hMAGL activity was performed using an assay kit provided by Cayman Scientific (item. 705192), according to the manufacturer’s instructions. Briefly, in vitro activity was measured in 96-well plates, and DMSO was used as solvent. 10 μL of DMSO (100% initial activity wells: 100% IA) or compounds at two concentrations (1 and 10 μM) were preincubated for 5 min at rt with 150 μL of diluted assay buffer (10 mM Tris HCl, pH 7.2, containing 1 mM EDTA) containing hMAGL. In blank wells, 160 μL of the diluted assay buffer and 10 μL of DMSO were added. The reactions were initiated by adding 10 μL of MAGL substrate to all the wells, and plates were incubated for 10 min at rt. Absorbance values were measured at 405 nm, and percent inhibition was calculated by the following method: 100 – (Inhibitor/100% IA) × 100. The reported percentages of inhibition are the mean of at least three independent experiments performed in three technical replicates.

[2] = tested on: GalSph (d18:1); assay: Brain GalSph levels in Twitcher mice (Krabbe's disease model); type: in vivo, mouse; conditions: for reduction of GalSph (d18:1) levels in the brains: Twitcher mice; for GalSph(d18:1) change (Figure 8): brain
Protocol: 4L;C* mice (C57BL/6 J/129SvEV) were randomly assigned to three treatment groups (N = 4–8 with mixed males and females) and dosed once a day i.p. with 90 or 30 mg kg^–1 of 22m or vehicle. Treatment started at 5 days of age for a duration of 14 days. The application volume was set to 10 μL per gram of body weight, and dosage was adjusted accordingly. Animals of all groups were sacrificed 1 h after the last dose, and the brain tissues and plasma were collected. The left brain containing cortex, cerebella, thalamus, and brainstem was analyzed for SphL levels by MS. Data were analyzed using the Student t test. The right brain containing cortex, cerebella, thalamus, and brainstem and plasma were analyzed for drug levels of 22m. All mice were housed under pathogen-free conditions in the animal facility, and animal experiment was performed according to the IACUC approved protocol (2018-0056) at Cincinnati Children’s Hospital Research Foundation. Wild Type (WT) (GALC+/+) and Twitcher (Twi) (GALC–/−) mice were genotyped by PCR as previously described.[58] Twi mice were randomly assigned to three treatment groups (N = 3 males + N = 3 females for each group) and dosed once a day i.p. with 90 or 30 mg kg^–122m or vehicle for a duration of 20 days. Treatment started at 10 days of age. The application volume was set to 10 μL per gram of body weight, and dosage was adjusted accordingly. Two groups (N = 3 males + N = 3 females for each group) of WT controls treated with vehicle or high dose (90 mg kg^–1) of 22m were also included in the study. Animals of all groups were sacrificed 1 h after the last dose, and the brain tissues and plasma were collected. The left brain containing cortex, cerebella, thalamus, and brainstem was analyzed for SphL levels by MS. Data were analyzed using the Student t test. The right brain containing cortex, cerebella, thalamus, and brainstem and plasma were analyzed for drug levels of 22m. All animal work in this study was performed in accordance with approved animal protocols from the Animal Care and Use Committee at the University of Illinois at Chicago.

## CC(C)CNC(=O)n1c(=O)oc2cc(C3CCN(C)CC3)ccc21 [22m, N-Isobutyl-6-(1-methyl-4-piperidyl)-2-oxo-1,3-benzoxazole-3-carboxamide]
[1]
  effect on MAGL: no effect
[2]; 30 mg kg^–1 i.p. once daily for 20 days
  reduction of GalSph (d18:1) levels in the brains: 41%
[2]; 90 mg kg^–1 i.p. once daily for 20 days
  reduction of GalSph (d18:1) levels in the brains: 72%
[2]; Twi 30 mg/kg i.p.
  GalSph(d18:1) change (Figure 8): -41%
[2]; Twi 90 mg/kg i.p.
  GalSph(d18:1) change (Figure 8): -72%
